Several values for one entry are separate records, joined by “and”; a condition that tells them apart may be missing. Identical values can stand only once. Toxic doses and inconclusive results are not listed.
Tested on: BDF1 mice, L1210 leukemia sc, survival T/C
Test: NCI In Vivo Anticancer Drug Screen. Data for tumor model L1210 Leukemia (subcutaneous) in B6D2F1 (BDF1) mice
Conditions: higher = longer survival
Summary of the method: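 Expressed as T/C: measurement in compound-treated, tumor-bearing mice relative to vehicle-treated control mice, based on survival or tumor size.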

## S=c1nc[nH]c2nc[nH]c12
endpoint: mean survival time, dose: 60.0 mg/kg/injection, schedule: Q01DX001 (ip), vehicle: saline
  T/C: 106 % of control
endpoint: mean survival time, dose: 90.0 mg/kg/injection, schedule: Q01DX001 (ip), vehicle: saline
  T/C: 110 % of control
endpoint: mean survival time, dose: 120.0 mg/kg/injection, schedule: Q01DX001 (ip), vehicle: saline
  T/C: 110 % of control
endpoint: mean survival time, dose: 240.0 mg/kg/injection, schedule: Q01DX001 (ip), vehicle: saline
  T/C: 116 % of control
endpoint: median survival time, dose: 0.65 mg/kg/injection, schedule: Q02DX Z (sc), vehicle: other
  T/C: 116 % of control
endpoint: median survival time, dose: 5.0 mg/kg/injection, schedule: Q01DX009 (sc), vehicle: other
  T/C: 109 % of control
endpoint: median survival time, dose: 5.0 mg/kg/injection, schedule: Q## X Z (sc), vehicle: other
  T/C: 105 % of control
endpoint: median survival time, dose: 10.0 mg/kg/injection, schedule: Q01DX009 (sc), vehicle: other
  T/C: 113 % of control
endpoint: median survival time, dose: 10.0 mg/kg/injection, schedule: Q01DX Z (sc), vehicle: methylcellulose (MC)
  T/C: 105 % of control
endpoint: median survival time, dose: 12.5 mg/kg/injection, schedule: Q01DX012 (ip), vehicle: other
  T/C: 122 % of control
endpoint: median survival time, dose: 14.0 mg/kg/injection, schedule: Q01DX Z (ip), vehicle: other
  T/C: 100 % of control
endpoint: median survival time, dose: 14.0 mg/kg/injection, schedule: Q01DX Z (oral), vehicle: methylcellulose (MC)
  T/C: 100 % of control and 104 % of control
endpoint: median survival time, dose: 14.0 mg/kg/injection, schedule: Q01DX Z (sc), vehicle: other
  T/C: 100 % of control (2×) and 110 % of control
endpoint: median survival time, dose: 14.0 mg/kg/injection, schedule: Q#A X Z (sc), vehicle: other
  T/C: 105 % of control and 115 % of control
endpoint: median survival time, dose: 17.0 mg/kg/injection, schedule: Q01DX Z (oral), vehicle: methylcellulose (MC)
  T/C: 95 % of control
endpoint: median survival time, dose: 17.0 mg/kg/injection, schedule: Q01DX Z (sc), vehicle: methylcellulose (MC)
  T/C: 100 % of control and 110 % of control
endpoint: median survival time, dose: 20.0 mg/kg/injection, schedule: Q01DX009 (sc), vehicle: other
  T/C: 124 % of control
endpoint: median survival time, dose: 23.0 mg/kg/injection, schedule: Q01DX Z (ip), vehicle: other
  T/C: 100 % of control
endpoint: median survival time, dose: 23.0 mg/kg/injection, schedule: Q01DX Z (oral), vehicle: methylcellulose (MC)
  T/C: 100 % of control
endpoint: median survival time, dose: 23.0 mg/kg/injection, schedule: Q01DX Z (sc), vehicle: methylcellulose (MC)
  T/C: 109 % of control
endpoint: median survival time, dose: 23.0 mg/kg/injection, schedule: Q02DX Z (sc), vehicle: other
  T/C: 94 % of control
endpoint: median survival time, dose: 23.0 mg/kg/injection, schedule: Q#A X Z (sc), vehicle: other
  T/C: 105 % of control
endpoint: median survival time, dose: 28.0 mg/kg/injection, schedule: Q01DX Z (oral), vehicle: methylcellulose (MC)
  T/C: 100 % of control
endpoint: median survival time, dose: 28.0 mg/kg/injection, schedule: Q01DX Z (sc), vehicle: methylcellulose (MC)
  T/C: 109 % of control
endpoint: median survival time, dose: 28.0 mg/kg/injection, schedule: Q01DX Z (sc), vehicle: other
  T/C: 110 % of control
endpoint: median survival time, dose: 38.9 mg/kg/injection, schedule: Q01DX Z (sc), vehicle: methylcellulose (MC)
  T/C: 150 % of control
endpoint: median survival time, dose: 38.9 mg/kg/injection, schedule: Q01DX Z (sc), vehicle: other
  T/C: 100 % of control and 105 % of control
endpoint: median survival time, dose: 39.0 mg/kg/injection, schedule: Q01DX001 (sc), vehicle: other
  T/C: 105 % of control
endpoint: median survival time, dose: 39.0 mg/kg/injection, schedule: Q01DX Z (ip), vehicle: other
  T/C: 110 % of control
endpoint: median survival time, dose: 39.0 mg/kg/injection, schedule: Q01DX Z (oral), vehicle: methylcellulose (MC)
  T/C: 104 % of control
endpoint: median survival time, dose: 39.0 mg/kg/injection, schedule: Q02DX Z (sc), vehicle: other
  T/C: 105 % of control
endpoint: median survival time, dose: 39.0 mg/kg/injection, schedule: Q07DX Z (sc), vehicle: other
  T/C: 105 % of control
endpoint: median survival time, dose: 39.0 mg/kg/injection, schedule: Q## X Z (sc), vehicle: other
  T/C: 100 % of control
endpoint: median survival time, dose: 39.0 mg/kg/injection, schedule: Q#A X Z (sc), vehicle: other
  T/C: 110 % of control
endpoint: median survival time, dose: 47.0 mg/kg/injection, schedule: Q01DX Z (oral), vehicle: methylcellulose (MC)
  T/C: 104 % of control
endpoint: median survival time, dose: 47.0 mg/kg/injection, schedule: Q01DX Z (sc), vehicle: other
  T/C: 110 % of control
endpoint: median survival time, dose: 50.0 mg/kg/injection, schedule: Q01DX012 (ip), vehicle: other
  T/C: 155 % of control
endpoint: median survival time, dose: 60.0 mg/kg/injection, schedule: Q01DX001 (ip), vehicle: saline
  T/C: 100 % of control
endpoint: median survival time, dose: 64.8 mg/kg/injection, schedule: Q01DX Z (sc), vehicle: other
  T/C: 150 % of control
endpoint: median survival time, dose: 65.0 mg/kg/injection, schedule: Q01DX001 (sc), vehicle: other
  T/C: 105 % of control and 115 % of control
endpoint: median survival time, dose: 65.0 mg/kg/injection, schedule: Q01DX Z (oral), vehicle: methylcellulose (MC)
  T/C: 104 % of control and 115 % of control
endpoint: median survival time, dose: 65.0 mg/kg/injection, schedule: Q01DX Z (sc), vehicle: methylcellulose (MC)
  T/C: 154 % of control
endpoint: median survival time, dose: 65.0 mg/kg/injection, schedule: Q02DX Z (sc), vehicle: other
  T/C: 105 % of control and 115 % of control
endpoint: median survival time, dose: 65.0 mg/kg/injection, schedule: Q07DX Z (sc), vehicle: other
  T/C: 105 % of control and 115 % of control
endpoint: median survival time, dose: 65.0 mg/kg/injection, schedule: Q## X Z (sc), vehicle: other
  T/C: 100 % of control
endpoint: median survival time, dose: 78.0 mg/kg/injection, schedule: Q01DX Z (oral), vehicle: methylcellulose (MC)
  T/C: 113 % of control
endpoint: median survival time, dose: 78.0 mg/kg/injection, schedule: Q01DX Z (sc), vehicle: other
  T/C: 155 % of control
endpoint: median survival time, dose: 80.0 mg/kg/injection, schedule: Q01DX009 (ip), vehicle: other
  T/C: 150 % of control
endpoint: median survival time, dose: 80.0 mg/kg/injection, schedule: Q01DX009 (sc), vehicle: other
  T/C: 155 % of control
endpoint: median survival time, dose: 90.0 mg/kg/injection, schedule: Q01DX001 (ip), vehicle: saline
  T/C: 110 % of control
endpoint: median survival time, dose: 108.0 mg/kg/injection, schedule: Q01DX001 (sc), vehicle: other
  T/C: 115 % of control
endpoint: median survival time, dose: 108.0 mg/kg/injection, schedule: Q01DX Z (ip), vehicle: other
  T/C: 155 % of control
endpoint: median survival time, dose: 108.0 mg/kg/injection, schedule: Q01DX Z (oral), vehicle: methylcellulose (MC)
  T/C: 105 % of control and 118 % of control
endpoint: median survival time, dose: 108.0 mg/kg/injection, schedule: Q02DX Z (sc), vehicle: other
  T/C: 152 % of control
endpoint: median survival time, dose: 108.0 mg/kg/injection, schedule: Q07DX Z (sc), vehicle: other
  T/C: 115 % of control
endpoint: median survival time, dose: 108.0 mg/kg/injection, schedule: Q## X Z (sc), vehicle: other
  T/C: 115 % of control
endpoint: median survival time, dose: 120.0 mg/kg/injection, schedule: Q01DX001 (ip), vehicle: saline
  T/C: 110 % of control
endpoint: median survival time, dose: 130.0 mg/kg/injection, schedule: Q01DX Z (sc), vehicle: methylcellulose (MC)
  T/C: 109 % of control
endpoint: median survival time, dose: 130.0 mg/kg/injection, schedule: Q01DX Z (sc), vehicle: other
  T/C: 150 % of control
endpoint: median survival time, dose: 160.0 mg/kg/injection, schedule: Q01DX009 (sc), vehicle: other
  T/C: 102 % of control
endpoint: median survival time, dose: 180.0 mg/kg/injection, schedule: Q01DX001 (sc), vehicle: other
  T/C: 121 % of control
endpoint: median survival time, dose: 180.0 mg/kg/injection, schedule: Q01DX Z (oral), vehicle: methylcellulose (MC)
  T/C: 150 % of control
endpoint: median survival time, dose: 180.0 mg/kg/injection, schedule: Q07DX Z (sc), vehicle: other
  T/C: 121 % of control
endpoint: median survival time, dose: 200.0 mg/kg/injection, schedule: Q01DX012 (ip), vehicle: other
  T/C: 100 % of control
endpoint: median survival time, dose: 216.0 mg/kg/injection, schedule: Q01DX Z (oral), vehicle: methylcellulose (MC)
  T/C: 109 % of control
endpoint: median survival time, dose: 216.0 mg/kg/injection, schedule: Q01DX Z (sc), vehicle: methylcellulose (MC)
  T/C: 109 % of control
endpoint: median survival time, dose: 216.0 mg/kg/injection, schedule: Q01DX Z (sc), vehicle: other
  T/C: 150 % of control
endpoint: median survival time, dose: 240.0 mg/kg/injection, schedule: Q01DX001 (ip), vehicle: saline
  T/C: 110 % of control
endpoint: median survival time, dose: 300.0 mg/kg/injection, schedule: Q01DX Z (oral), vehicle: methylcellulose (MC)
  T/C: 150 % of control and 154 % of control
endpoint: median survival time, dose: 300.0 mg/kg/injection, schedule: Q01DX Z (sc), vehicle: methylcellulose (MC)
  T/C: 120 % of control
endpoint: median survival time, dose: 300.0 mg/kg/injection, schedule: Q07DX Z (sc), vehicle: other
  T/C: 121 % of control
endpoint: median survival time, dose: 300.0 mg/kg/injection, schedule: Q## X Z (sc), vehicle: other
  T/C: 157 % of control
endpoint: median survival time, dose: 360.0 mg/kg/injection, schedule: Q01DX Z (oral), vehicle: methylcellulose (MC)
  T/C: 122 % of control
endpoint: median survival time, dose: 500.0 mg/kg/injection, schedule: Q01DX Z (oral), vehicle: other
  T/C: 120 % of control
